Laboratory results reported in patent US8871681B2, “Herbicidal compositions comprising 4-amino-3-chloro-5-fluoro-6-(4-chloro-2-fluoro-3-methoxyphenyl) pyridine-2-carboxylic acid or a derivative thereof and certain sulfonylureas” (Dow AgroSciences LLC, priority 2012, dated 2014).
“And” between values parts separate entries of the source, which are not always exact repeats. Identical values can stand only once.

What was measured:
[1] = test system: CYPES (Cyperus esculentus, yellow nutsedge); test: Postemergence foliar-applied weed control, direct seeded rice, greenhouse (Example I); type: in vivo, Cyperus esculentus L.; details: 20 DAA
Text: Seeds or nutlets of the desired test plant species were planted in a soil matrix prepared by mixing a loam or sandy loam soil (e.g., 28.6 percent silt, 18.8 percent clay, and 52.6 percent sand, with a pH of about 5.8 and an organic matter content of about 1.8 percent) and calcareous grit in an 80 to 20 ratio. The soil matrix was contained in plastic pots with a volume of 1 quart and a surface area of 83.6 square centimeters (cm^2). When required to ensure good germination and healthy plants, a fungicide treatment and/or other chemical or physical treatment was applied. The plants were grown for 8-22 days in a greenhouse with an approximate 14 h photoperiod which was maintained at about 29° C. during the day and 26° C. during the night. Nutrients (Peters Excel® 15-5-15 5-Ca 2-Mg and iron chelate) were applied in the irrigation solution as needed and water was added on a regular basis. Supplemental lighting was provided with overhead metal halide 1000-Watt lamps as necessary. The plants were employed for testing when they reached the first through fourth true leaf stage.
Treatments consisted of the acid or esters of 4-amino-3-chloro-5-fluoro-6-(4-chloro-2-fluoro-3-methoxy-phenyl)pyridine-2-carboxylic acid (Compound A), each formulated as an SC, and various herbicidal components alone and in combination. Forms of compound A were applied on an acid equivalent basis.
Other herbicidal components were applied on an active ingredient basis and included acetolactate synthase (ALS)-inhibiting herbicides (sulfonylurea chemical class) azimsulfuron formulated as Gulliver®, bensulfuron-methyl formulated as Londax® 60DF, cyclosulfamuron (technical material), ethoxysulfuron formulated as Sunrice® 15 WDG, flazasulfuron formulated as Katana®, flucetosulfuron formulated as Sukedachi® 1KG G, foramsulfuron formulated as Option®, imazosulfuron formulated as Brazzos® WG, iodosulfuron-methyl-sodium formulated as Hussar®, metsulfuron-methyl formulated as Lorate®, nicosulfuron formulated as Accent®, orthosulfamuron formulated as Strada® WG, primisulfuron-methyl (technical material), propyrisulfuron formulated as Zeta One®, rimsulfuron formulated as Matrix® WG, sulfometuron-methyl formulated as Oust®, and trifloxysulfuron-sodium formulated as Monument® 75WG.
Treatment requirements were calculated based upon the rates being tested, the concentration of active ingredient or acid equivalent in the formulation, and a 12 mL application volume at a rate of 187 L/ha.
For treatments comprised of formulated compounds, measured amounts of compounds were placed individually in 25 mL glass vials and diluted in a volume of 1.25% (v/v) Agri-Dex® crop oil concentrated to obtain 12× stock solutions. […] Application solutions were prepared by adding an appropriate amount of each stock solution (e.g., 1 mL) and diluted to the appropriate final concentrations with the addition of 10 mL of an aqueous mixture of 1.25% (v/v) crop oil concentrate so that the final spray solutions contained 1.25+/−0.05% (v/v) Agrcrop oil concentrate.
For treatments comprised of formulated and technical compounds, weighed amounts of the technical materials were placed individually in 25 mL glass vials and dissolved in a volume of 97:3 v/v acetone/DMSO to obtain 12× stock solutions, and measured amounts of the formulated compounds were placed individually in 25 mL glass vials and diluted in a volume of 1.25% (v/v) crop oil concentrate to obtain 12× stock solutions. […] Application solutions were prepared by adding an appropriate amount of each stock solution (e.g., 1 mL) and diluted to the appropriate final concentrations with the addition of an appropriate amount of an aqueous mixture of 1.5% (v/v) crop oil concentrate so that the final spray solutions contained 1.25% (v/v) crop oil concentrate. […]

[2] = test system: CYPRO (Cyperus rotundus, purple nutsedge); test: In-water applied weed control, transplanted paddy rice, greenhouse (Example II); type: in vivo, Cyperus rotundus L.
Procedure: Weed seeds or nutlets of the desired test plant species were planted in puddled soil (mud) prepared by mixing a shredded, non-sterilized mineral soil (50.5 percent silt, 25.5 percent clay, and 24 percent sand, with a pH of about 7.6 and an organic matter content of about 2.9 percent) and water at a 1:1 volumetric ratio. The prepared mud was dispensed in 365 mL aliquots into 16-ounce (oz.) non-perforated plastic pots with a surface area of 86.59 square centimeters (cm^2) leaving a headspace of 3 centimeters (cm) in each pot. Rice seeds were planted in Sun Gro MetroMix® 306 planting mixture, which typically has a pH of 6.0 to 6.8 and an organic matter content of about 30 percent, in plastic plug trays. Seedlings at the second or third leaf stage of growth were transplanted into 860 mL of mud contained in 32-oz. non-perforated plastic pots with a surface area of 86.59 cm^2 4 days prior to herbicide application. The paddy was created by filling the headspace of the pots with 2.5 to 3 cm of water. When required to ensure good germination and healthy plants, a fungicide treatment and/or other chemical or physical treatment was applied. The plants were grown for 4-22 days in a greenhouse with an approximate 14 h photoperiod which was maintained at about 29′C during the day and 26° C. during the night. Nutrients were added as Osmocote® (19:6:12, N:P:K+minor nutrients) at 2 g per 16-oz. pot and 4 g per 32-oz. pot. Water was added on a regular basis to maintain the paddy flood, and supplemental lighting was provided with overhead metal halide 1000-Watt lamps as necessary. The plants were employed for testing when they reached the first through fourth true leaf stage.
Treatments consisted of the acid or esters of 4-amino-3-chloro-5-fluoro-6-(4-chloro-2-fluoro-3-methoxy-phenyl)pyridine-2-carboxylic acid (compound A) each formulated as an SC and various herbicidal components alone and in combination. Forms of compound A were applied on an acid equivalent basis.
Other herbicidal components were applied on an active ingredient basis and included acetolactate synthase (ALS)-inhibiting herbicides (sulfonylurea chemical class), azimsulfuron formulated as Gulliver®, bensulfuron-methyl formulated as Londax® 60DF, cyclosulfamuron (technical grade materail), ethoxysulfuron formulated as Sunrice® 15 WDG, flucetosulfuron formulated as Sukedachi® 1KG G, imazosulfuron formulated as Brazzos®, metsulfuron-methyl formulated as Lorate®, nicosulfuron formulated as Accent®, orthosulfamuron formulated as Strada® WG, propyrisulfuron formulated as Zeta One®, and rimsulfuron formulated as Matrix® WG.
Treatment requirements for each compound or herbicidal component were calculated based upon the rates being tested, the concentration of active ingredient or acid equivalent in the formulation, an application volume of 2 mL per component per pot, and an application area of 86.59 cm^2 per pot.
For formulated compounds, a measured amount was placed in an individual 100 or 200 mL glass vial and was dissolved in a volume of 1.25% (v/v) Agri-Dex® crop oil concentrate to obtain application solutions.
For technical grade compounds, a weighed amount was placed in an individual 100 to 200 mL glass vial and was dissolved in a volume of acetone to obtain concentrated stock solutions. […] The concentrated stock solutions obtained were diluted with an equivalent volume of an aqueous mixture containing 2.5% (v/v) crop oil concentrate so that the final application solutions contained 1.25% (v/v) crop oil concentrate.
Applications were made by injecting with a pipetter appropriate amounts of the application solutions, individually and sequentially, into the aqueous layer of the paddy. Control plants were treated in the same manner with the solvent blank. Applications were made so that all treated plant material received the same concentrations of acetone and crop oil concentrate. […]

Structure (SMILES)	Visual Weed Control (%) Obs ([1]; 4.38 gae/ha)	Visual Weed Control (%) Obs ([1]; 5.3 gae/ha)	Visual Weed Control (%) Obs ([1]; 8.75 gae/ha)	Visual Weed Control (%) - 20 DAA CYPRO Obs ([2]; Table 43, 10.6 gae/ha alone)	Visual Weed Control (%) - 20 DAA CYPRO Obs ([2]; Table 43, 21.2 gae/ha alone)	Visual Weed Control (%) - 20 DAA CYPRO Obs ([2]; Table 49, 10.6 gae/ha alone)	Visual Weed Control (%) - 20 DAA CYPRO Obs ([2]; Table 49, 21.2 gae/ha alone)	Visual Weed Control (%) - 20 DAA CYPRO Obs ([2]; Table 49, 42.4 gae/ha alone)	Visual Weed Control (%) Obs ([1]; 17.5 gae/ha)	Visual Weed Control (%) - 20 DAA CYPRO Obs ([2]; Table 50, 4.38 gae/ha alone)	Visual Weed Control (%) - 20 DAA CYPRO Obs ([2]; Table 50, 8.75 gae/ha alone)	Visual Weed Control (%) - 20 DAA CYPRO Obs ([2]; Table 50, 17.5 gae/ha alone)
COc1c(Cl)ccc(-c2nc(C(=O)O)c(Cl)c(N)c2F)c1F [Compound A Acid, 4-amino-3-chloro-5-fluoro-6-(4-chloro-2-fluoro-3-methoxy-phenyl)pyridine-2-carboxylic acid]	30%	0%	70%	10%	20%	10%	20%	95%				
COc1c(Cl)ccc(-c2nc(C(=O)OCc3ccccc3)c(Cl)c(N)c2F)c1F [Compound A Benzyl Ester]	70% and 85%		80% and 90%						90%	50%	0%	90%
